Assay results as given in patent US7750005B2, “Substituted hexahydropyrazino [1,2-A] pyrimidine-4,7-dione derivatives, process for their preparation and their use as medicaments” (Sanofi-Aventis Deutschland GmbH, priority 2003, dated 2010).

Test system: female NMRI mice
Assay: Anorectic effect: cumulative condensed milk consumption after oral administration
Format: in vivo
Details: food withdrawn 24 hours, oral dose 50 mg/kg by gavage
Experimental: The anorectic effect was tested on female NMRI mice. After withdrawal of food for 24 hours, the test product was administered by gavage. The animals were housed singly with free access to drinking water and were offered condensed milk 30 minutes after administration of the product. The condensed milk consumption was determined every half hour for 7 hours, and the general wellbeing of the animals was observed. The measured milk consumption was compared with the vehicle-treated control animals.

COc1ccc(Cl)cc1S(=O)(=O)N1CCC(=O)N2C(Cc3ccc(Cl)cc3)C(=O)N(C(C)C)CC21 (centres unmarked) [Example 2, 6-(4-Chlorobenzyl)-1-(5-chloro-2-methoxybenzenesulfonyl)-8-isopropylhexahydropyrazino[1,2-a]pyrimidine-4,7-dione]
Reduction in the cumulative milk consumption as % of the control (milk consumption over 7 hours): 11 % of the control | cumulative milk consumption of the treated animals (over 7 hours, N=10, control animals 5.48 ml): 10/4.90 ml
